The source of these data is publication PMC8484864 (Peptides, 2021).

One series is described as follows: rat plasma in vitro. To be noted: cited from earlier work.
Another series deals with furin. Put plainly: buffer-based ELA-32 digestion study. The settings on record: cited from earlier work.
Series [1] can be described thus: human plasma, pooled from four healthy human donors. To be noted: 37 °C, up to 240 min.
Series [2] in a line: human kidney homogenised in 50 mM HEPES solution, pH 7.4. The settings on record: 37 °C, up to 120 min.
In another series the test system is apelin receptor. To be noted: SAR study of short ELA fragments; cited from earlier work.

“Also recorded” adds a separate entry of the source.

Consider QRPVNLTMRRKLRKHNCLQRRCMPLHSRVPFP, for which the fragment found entry in “rat plasma in vitro” is listed as “ELA-22; also recorded: ELA-32(1-9)”; in the series with furin, “ELA-11”; in series [2], “ELA-23, earliest time points; also recorded: ELA-17, 60 min”. Besides, the cleaved bond entry in series [1] is “R-R and L-R, major, 60 min and R-K, first_seen, within 2 min and H-N, major, 60 min and Arg21-Cys22, major, 60 min and proline-phenylalanine”.

Take “LHSRVPFP [ELA-8, ELA-32 fragment from loss of N-terminal amino acids]”: the “binding to the apelin receptor (in words)” value with apelin receptor is “completely lost its ability to bind the apelin receptor”.
